Test results taken from publication PMC9791066, “Investigations into the antibacterial effects and potential mechanism of gambogic acid and neogambogic acid” (Frontiers in Microbiology, 2022).
Values after ≈ are worked out from the molar mass of the structure shown. Read-outs that look alike come from different tables or passages of the source.

Key:
[1] = molecular target: T1, EfaUPPS (I43A) (Enterococcus faecalis, UniProt Q831K9, I49A); assay: UPPS inhibition assay, EfaUPPS I43A mutant; format: biochemical
T1 construct: His tag; made in house; host or cells: E. coli BL21(DE3)
T1 sequence (Q831K9 whole entry I49A): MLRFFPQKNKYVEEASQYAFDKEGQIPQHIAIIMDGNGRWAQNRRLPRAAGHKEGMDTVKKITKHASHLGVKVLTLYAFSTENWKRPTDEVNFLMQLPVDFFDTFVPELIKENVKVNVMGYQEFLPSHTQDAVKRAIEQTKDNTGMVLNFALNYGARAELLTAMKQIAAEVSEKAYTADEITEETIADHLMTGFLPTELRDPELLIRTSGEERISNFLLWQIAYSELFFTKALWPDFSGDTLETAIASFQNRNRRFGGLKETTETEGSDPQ
Experimental: The EfaUPPS site-directed mutagenesis was generated using QuikChange site-directed mutagenesis kit (Agilent) according to the manufacturer’s instructions. The purification of site-directed mutation was using a similar strategy as described above.
The UPPS inhibition assay was carried out by measuring the fluorescence of the reaction mixture in a black 96-well microtiter plate (Corning, United States). […] After the indicated incubation period, the reaction was terminated by the addition of 10 μl of 0.5 M EDTA solution. Transferred 50 μl of the reaction mixture into a new 96-well microtiter plate, and quenched with an equal volume of Master Reaction Mix (Pyrophosphate Assay Kit, Sigma-Aldrich, USA) for 30 min. The UPPS inhibitory activity was performed by calculating the fluorescence percentage through determining the fluorescence absorbance of reaction mixture at 316 and 456 nm. Data of UPPS inhibitory activities were plotted versus compound concentrations on a semi-log scale using GraphPad Prism7. All the results were the means of at least three biological replicates.

[2] = molecular target: T2, EfaUPPS (K47A) (Enterococcus faecalis, UniProt Q831K9, K53A); assay: Microscale thermophoresis binding assay, EfaUPPS K47A
T2 construct: His tag; made in house; host or cells: E. coli BL21(DE3)
T2 sequence (Q831K9 whole entry K53A): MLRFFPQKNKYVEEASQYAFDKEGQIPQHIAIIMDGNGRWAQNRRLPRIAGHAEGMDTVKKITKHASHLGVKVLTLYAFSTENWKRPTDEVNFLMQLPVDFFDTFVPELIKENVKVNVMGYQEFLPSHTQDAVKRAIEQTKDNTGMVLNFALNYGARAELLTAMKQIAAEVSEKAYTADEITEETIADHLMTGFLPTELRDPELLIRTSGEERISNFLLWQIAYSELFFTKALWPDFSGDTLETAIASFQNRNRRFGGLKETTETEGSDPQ
Experimental: (§1) To characterize the binding affinity between EfaUPPS and GA or NGA, the MST binding assay was performed as previously described ([Lin et al., 2020]). In brief, His-tagged EfaUPPS and site-directed mutated EfaUPPS were labeled with the NT- 647-NHS dye using the Monolith NTTM Protein Labeling Kit RED-NHS (NanoTemper Technologies). Two-fold serially diluted GA or NGA was mixed with 10 nM of labeled EfaUPPS or its derivatives in 10 μl of binding buffer (137 mM NaCl, 2.7 mM KCl, 10 mM Na2HPO4, 1.8 mM KH2PO4, and 0.05% Tween-20, pH 7.8), incubated for 15 min, at room temperature. And then, loaded the mixtures into NT.115 premium coated capillaries (NanoTemper Technologies). MST trace signals were collected from the IR laser on to off for about 20 s, under the 5% LED power and high MST power mode. The change of molecular thermophoresis was monitored by standardized fluorescence value Fnorm, and the binding curve was plotted according to the values of Fnorm. The formed complex affinity was analyzed by MO Affinity Analysis software version 2.3. Apparent dissociation constants (Kd) were calculated using nonlinear fitting assuming one specific binding site with the GraphPad Prism 7 software with the following formula: Y = B^∗Max X/KD + X.
(§2) (^∗ where BMax is the maximum theoretical specific binding; here BMax = 1).

[3] = molecular target: T1, EfaUPPS (I43A); assay: Microscale thermophoresis binding assay, EfaUPPS I43A
Experimental: as §1, §2

[4] = test system: Escherichia coli ATCC25922; assay: MIC, microtiter broth dilution; format: cell-based; details: Escherichia coli
Experimental: (§3) Antibacterial activities were performed by examining the minimal inhibitory concentrations (MICs), which was determined by a microtiter broth dilution method as previously described ([Cotsonas King and Wu, 2009]), with minor modifications. Briefly, 96-well plates (Corning) were inoculated with 100 μl of LB broth per well containing 7 × 10^5 CFU/mL bacteria, followed by adding 100 μl of LB broth containing two-fold serial dilutions of the test compounds. […] After 18 h of incubation, the MIC was determined to be the lowest concentration without visible bacterial growth. The results were the averages of at least three biological replicates.

[5] = test system: Escherichia coli BAS 849; assay: microbe, parasite or virus in culture; format: cell-based; details: Escherichia coli
Experimental: as §3

[6] = test system: Escherichia coli BL21 (DE3); assay: microbe, parasite or virus in culture; format: cell-based; details: Escherichia coli, 18 h
Experimental: as §3

[7] = test system: Escherichia coli DH5α; assay: microbe, parasite or virus in culture; format: cell-based; details: Escherichia coli, 18 h
Experimental: as §3

[8] = test system: E. faecalis ATCC29212; assay: Bacterial activity (bactericidal) test; format: cell-based, Enterococcus faecalis; details: 2 μg/mL
Experimental: The E. faecalis ATCC29212 were pre-cultured in LB broth at 200 rpm, 37°C overnight, and then the cultures were diluted to 7 × 10^5 CFU/mL by LB broth. A 96-well microtiter plate was inoculated with 200 μl the diluted cultures per well containing 0.1 mg/mL Resazurin with or without 2 μg/mL GA or NGA, followed by incubation at 37°C for 24 h, and then imaged. Three biological replicates were performed for each sample. To visualized the potential bactericidal properties for GA and NGA, the 24 h of GA/NGA-pretreated E. faecalis were coated on the plate to continue cultured overnight. The bactericidal properties of the compounds were determined by counting the bacterial CFUs.

| Structure (SMILES) | IC50 [1] [µM] | effect of mutation on inhibitory effect of compound on EfaUPPS enzyme activity ([1]; I43A mutant compared with wild-type) | IC50 fold higher than that of the wild-type ([1]; I43A mutant vs wild-type (~3 μM)) | Kd [2] [µM] | Kd fold lower than that of the wild-type ([2]; K47A vs wild-type) | Kd [3] [µM] | MIC ([4]; ATCC25922, LB broth, 18 h, read-out: MIC) [µg/mL] | MIC ([5]; BAS849, LB broth, 18 h, strain with deficient outer-membrane structure, read-out: MIC) [µg/mL] | MIC ([6]; LB broth, read-out: MIC) [µg/mL] | MIC ([7]; LB broth, read-out: MIC) [µg/mL] | bactericidal properties (CFUs after 24 h pretreatment) [8] | Kd fold higher than that of the wild-type ([2]; K47A vs wild-type) | MIC ([4]; ATCC25922, 18 h) [µg/mL] | MIC ([5]; BAS849, 18 h) [µg/mL] | MIC [6] [µg/mL] | MIC [7] [µg/mL] |
| --- | --- | --- | --- | --- | --- | --- | --- | --- | --- | --- | --- | --- | --- | --- | --- | --- |
| CC(C)=CCC[C@]1(C)C=Cc2c(O)c3c(c(CC=C(C)C)c2O1)O[C@]12C(=C[C@@H]4C[C@H]1C(C)(C)O[C@@]2(C/C=C(/C)C(=O)O)C4=O)C3=O [GA, gambogic acid] | ~30 | significantly decreased | about 10 fold | 4.61 ± 2.62 | about 6 fold | > 50000 | > 64 | 8 (≈ 12.7 µM) | > 64 | > 64 | potential bactericidal effects |  |  |  |  |  |
| CC(C)=CCC[C@]1(C)CC(O)c2c(O)c3c(c(CC=C(C)C)c2O1)O[C@]12C(=C[C@@H]4C[C@H]1C(C)(C)O[C@@]2(C/C=C(/C)C(=O)O)C4=O)C3=O (stereo partly drawn) [NGA, neogambogic acid] |  |  |  | 65.9 ± 25.8 |  |  |  |  |  |  | potential bactericidal effects | about 10 fold | > 64 | 8 (≈ 12.4 µM) | > 64 | > 64 |
